Tested on: hemophilic arthropathy rat model (knee joint swelling)
Assay: Joint swelling in rat hemophilic arthropathy model induced by intraarticular injection of whole blood
Format: in vivo, female Lewis rats
Details: for % change of joint swelling: left vs right knee oval area, p<0.05
Description: A total of 8 female Lewis rats were used for hemophilia arthropathy (HA) study. The animals were specific pathogen free and approximately 6 to 7 weeks old upon start dosing.
Animals were randomized into 2 groups on Day 1 and started to receive diacerein or vehicle treatments throughout the study of 10 days. On Day 4 and Day 8, treatment was performed 1 hour before HA model induction. For HA induction, under anesthesia with 1.5-5% isoflurane (inhalation anesthesia machine, Matrix vip 3000 isoflurane), blood was collected from orbital sinus of each rat and immediately, 0.1 ml of whole blood was intraarticular injected into the cavity of left knee using syringe with 27G needle. The blood was anti-coagulated with EDTA-2K. Body weight and joint swelling measurement were assessed 4 hours post-dosing every day.
The longitudinal and transverse axes of both knee joints were measured with calipers on Day 1 (pre-dose), Day 4 (pre-dose), and Day 4-10 (4 hours post-dose). The oval area of knee joints and % change of joint swelling was calculated using the following formula:
Oval area=longitudinal axis×transverse axis×3.14×0.25% change of joint swelling=(Oval area left−Oval area right)/Oval area right×100%

SMILES: CC(=O)Oc1cccc2c1C(=O)c1c(OC(C)=O)cc(C(=O)O)cc1C2=O [diacerein, 4,5-bis (acetyloxy) 9,10-dihydro-4,5-dihydroxy-9,10-dioxo-2-anthracenecarboxylic acid]
- % change of joint swelling (Day 8, the second hemophilia arthropathy induction, vehicle 22.57±3.77%): 10.02±3.54%
- % change of joint swelling (Day 10, end of the study, vehicle 13.51±4.78%): 0.50±3.28%
- joint swelling (qualitative) (hemophilic arthropathy rat model, compared with vehicle): suppressed joint swelling

Reference: patent publication US20170319532A1, “METHODS AND FORMULATIONS FOR TREATMENT AND/OR PREVENTION OF BLOOD-ASSOCIATED DISORDERS” (TWi Biotechnology, Inc., priority 2016, published 2017)
